Assay results: PMC9238401, “Peptide Conjugates Derived from flg15, Pep13, and PIP1 That Are Active against Plant-Pathogenic Bacteria and Trigger Plant Defense Responses” (Applied and Environmental Microbiology, 2022)
Non-standard residues stand in square brackets, D forms with d. Residues, ends and D or L forms follow the SMILES beside them. No end group written: not given here.

Columns and labels:
[1] = system: Erwinia amylovora PMV6076; test: In vitro growth inhibition (MIC); type: cell-based; details: TSB, 25°C, 48 h, OD 600 nm (Bioscreen C), three replicates, experiment repeated twice; MIC = lowest concentration with no growth, given as range
In short: (§1)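 Bacterial suspensions (10^8 CFU mL^−1, from 24 h plates at 25°C) mixed with peptide dilutions in TSB, triplicate wells. OD600 read hourly over 48 h at 25°C with shaking. MIC = lowest concentration with no growth at end of run.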

[2] = system: Pseudomonas syringae pv. actinidiae Psa3700.1.1; test: In vitro growth inhibition (MIC); type: cell-based; details: TSB, 25°C, 48 h, OD 600 nm (Bioscreen C), three replicates, experiment repeated twice; MIC given as range
In short: as §1

[3] = system: Pseudomonas syringae pv. syringae EPS94; test: In vitro growth inhibition (MIC); type: cell-based; details: TSB, 25°C, 48 h, OD 600 nm (Bioscreen C), three replicates, experiment repeated twice; MIC given as range
In short: as §1

[4] = system: Xanthomonas arboricola pv. pruni CFBP5563; test: In vitro growth inhibition (MIC); type: cell-based; details: TSB, 25°C, 48 h, OD 600 nm (Bioscreen C), three replicates, experiment repeated twice; MIC given as range
In short: as §1

[5] = system: Xanthomonas fragariae Xf349-9A; test: In vitro growth inhibition (MIC); type: cell-based; details: TSB, 25°C, 48 h, OD 600 nm (Bioscreen C), three replicates, experiment repeated twice; MIC given as range
In short: as §1

[6] = system: Xanthomonas axonopodis pv. vesicatoria 2133-2; details: TSB, 25°C, 48 h, OD 600 nm (Bioscreen C), three replicates, experiment repeated twice; MIC given as range
In short: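 Bacteria grown 24 h (48 h for Xanthomonas axonopodis, X. fragariae) at 25°C, suspended at 10^8 CFU mL^−1, mixed with peptide dilutions in TSB.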

[7] = system: plant-pathogenic bacteria (E. amylovora, X. arboricola pv. pruni, X. fragariae, X. axonopodis pv. vesicatoria, P. syringae pv. actinidiae, P. syringae pv. …); details: 24 h
[8] = system: horse erythrocytes; details: TRIS buffer pH 7.2, 1 h, 37°C, absorbance 540 nm, relative to melittin 100 μM, ± confidence interval (α = 0.05)
In short: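 Horse erythrocytes washed in 10 mM Tris, 150 mM NaCl, pH 7.2 were mixed 1:1 with compound solutions at 750, 500, 300 and 100 μM and shaken 1 h at 37°C. Hemoglobin release read at 540 nm in supernatant; % hemolysis relative to buffer and melittin control.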

[9] = system: tobacco leaves; test: Effect of peptide infiltration on tobacco leaves (phytotoxicity); type: in vivo
In short: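 Peptide solutions at 50, 150 and 250 μM were infiltrated into the mesophyll of fully expanded tobacco leaves, with at least three leaves per peptide and dose on different plants. Water and equimolar melittin served as controls. Lesion diameter was measured 48 h after infiltration.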

[10] = HPLC retention time as indicator of relative hydrophobicity; type: physicochemical; details: chromatographic, Kromasil 100 C18 (4.6 mm × 40 mm, 3 μm), linear gradient 2 to 100% B over 12 min, 1 mL/min; A 0.1% aqueous TFA, B 0.1% TFA in CH3CN; used as indicator of relative hydrophobicity
Description: The parameters related to the structure of the peptide conjugates (sequence, charge, hydrophobic ratio [HR], and HPLC retention time), as well as their physicochemical properties (grand average hydropathicity [GRAVY] and hydrophobic moment [<μH>]) obtained from the online programs ProtParam (Expasy server) and HeliQuest are included in Table 1.
Peptides were analyzed under standard analytical HPLC conditions. Method A: peptides were analyzed with a Dionex liquid chromatography instrument composed of a UV/Vis Dionex UVD170U detector, a P680 Dionex pump, an ASI-100 Dionex automatic injector, and Chromeleon 6.60 software. Detection was performed at a wavelength of 220 nm. Solvent A was 0.1% aqueous trifluoroacetic acid (TFA), and solvent B was 0.1% TFA in CH3CN. Analyses were carried out with a Kromasil 100 C18 (4.6 mm × 40 mm, 3 μm) column with a linear gradient of 2 to 100% B over 7 min at a flow rate of 1 mL/min. Method B: peptides were analyzed with a 1260 Infinity II liquid chromatography instrument (Agilent Technologies) composed of a diode array detector HS, a quaternary pump VL, a 1260 vial sampler, and OpenLab CDS ChemStation software. Analyses were carried out with a Kromasil 100 C18 (4.6 mm × 40 mm, 3 μm) column with a linear gradient of 2 to 100% B over 12 min at a flow rate of 1 mL/min.

[11] = 100 μL infiltrated into mesophyll, lesion diameter 48 h after infiltration, at least three leaves, ± confidence interval (α = 0.05)

Molecule	MIC, Ea [1]	MIC, Psa [2]	MIC, Pss [3]	MIC, Xap [4]	MIC, Xf [5]	MIC, Xav [6]	MIC against all the bacteria tested (span over the six pathogens) [7]	Percent hemolysis at 50 μM [8]	Percent hemolysis at 150 μM [8]	Percent hemolysis at 250 μM [8]	Percent hemolysis at 375 μM [8]	Size of the lesions in infiltrated tobacco leaves at 50 μM ([9]; in vivo)	Size of the lesions in infiltrated tobacco leaves at 150 μM ([9]; in vivo)	Size of the lesions in infiltrated tobacco leaves at 250 μM ([9]; in vivo)	tR (min), HPLC retention time (method B) [10]	MIC against four pathogens [7]	Size of the lesions in infiltrated tobacco leaves at 50 μM [9, 11]	Size of the lesions in infiltrated tobacco leaves at 150 μM [9, 11]	Size of the lesions in infiltrated tobacco leaves at 250 μM [9, 11]
CC[C@H](C)[C@H](NC(=O)[C@H](CCCCN)NC(=O)[C@H](CCCCN)NC(=O)[C@@H](Cc1ccccc1)NC(=O)[C@H](CC(C)C)NC(=O)[C@H](CCCCN)NC(=O)[C@@H](N)CCCCN)C(=O)N[C@@H](CC(C)C)C(=O)N[C@@H](CCCCN)C(=O)N[C@@H](Cc1ccc(O)cc1)C(=O)N[C@@H](CC(C)C)C(=O)N[C@H](C(=O)N[C@@H](Cc1c[nH]c2ccccc12)C(=O)N[C@@H](CC(N)=O)C(=O)N[C@@H](CCC(N)=O)C(=O)N1CCC[C@H]1C(=O)N[C@H](C(=O)N[C@@H](CCCNC(=N)N)C(=O)NCC(=O)N[C@@H](Cc1ccccc1)C(=O)N[C@@H](CCCCN)C(=O)N[C@H](C(=O)N[C@@H](Cc1ccc(O)cc1)C(=O)N[C@@H](CCC(=O)O)C(=O)O)C(C)C)C(C)C)C(C)C [BP143-Pep13] (H-KKL[dF]KKILKYLVWNQPVRGFKVYE-OH)	1.6 to 3.1 µM	0.8 to 1.6 µM	1.6 to 3.1 µM	1.6 to 3.1 µM	6.2 to 12.5 µM	1.6 to 3.1 µM	0.8 to 12.5 µM	5 ± 1.9%	9 ± 0.4%	16 ± 1.9%	29 ± 0.9%	0.10 ± 0.12 cm	0.44 ± 0.16 cm	0.60 ± 0.25 cm	5.62 min				
CC[C@H](C)[C@H](NC(=O)[C@H](CCCCN)NC(=O)[C@H](CCCCN)NC(=O)[C@@H](Cc1ccccc1)NC(=O)[C@H](CC(C)C)NC(=O)[C@H](CCCCN)NC(=O)[C@H](CCCCN)NC(=O)[C@H](CCC(=O)O)NC(=O)[C@H](Cc1ccc(O)cc1)NC(=O)[C@@H](NC(=O)[C@H](CCCCN)NC(=O)[C@H](Cc1ccccc1)NC(=O)CNC(=O)[C@H](CCCNC(=N)N)NC(=O)[C@@H](NC(=O)[C@@H]1CCCN1C(=O)[C@H](CCC(N)=O)NC(=O)[C@H](CC(N)=O)NC(=O)[C@H](Cc1c[nH]c2ccccc12)NC(=O)[C@@H](N)C(C)C)C(C)C)C(C)C)C(=O)N[C@@H](CC(C)C)C(=O)N[C@@H](CCCCN)C(=O)N[C@@H](Cc1ccc(O)cc1)C(=O)N[C@@H](CC(C)C)C(N)=O [Pep13-BP143] (H-VWNQPVRGFKVYEKKL[dF]KKILKYL-NH2)	6.2 to 12.5 µM	3.1 to 6.2 µM	6.2 to 12.5 µM	0.8 to 1.6 µM	3.1 to 6.2 µM	0.8 to 1.6 µM	0.8 to 12.5 µM	5 ± 0.5%	8 ± 0.3%	10 ± 0.6%	17 ± 0.4%	0.16 ± 0.15 cm	0.52 ± 0.14 cm	0.62 ± 0.13 cm	5.97 min				
KKLFKKILKKLVWNQPVRGFKVYE [BP16-Pep13]	6.2 to 12.5 µM	1.6 to 3.1 µM	1.6 to 3.1 µM	0.8 to 1.6 µM	1.6 to 3.1 µM	1.6 to 3.1 µM	0.8 to 12.5 µM	1 ± 0.4%	1 ± 0.3%	1 ± 0.5%	2 ± 0.4%	0.23 ± 0.13 cm	0.45 ± 0.12 cm	1.02 ± 0.32 cm	5.12 min				
KKLFKKILKYLVWNQPVRGFKVYE [BP100-Pep13]	0.8 to 1.6 µM	0.8 to 1.6 µM	1.6 to 3.1 µM	1.6 to 3.1 µM	3.1 to 6.2 µM	1.6 to 3.1 µM		5 ± 0.3%	12 ± 1.1%	20 ± 2.4%	30 ± 3.2%	0.04 ± 0.08 cm	0.32 ± 0.11 cm	0.42 ± 0.10 cm	5.53 min	0.8 to 3.1 µM			
KKVVFWVKFK-RINSAKDDAAGLQIA-OH [KSLW-flg15, peptide conjugate, KSL-W at N-terminus, flg15 at C-terminus]	> 50 µM	> 50 µM	> 50 µM	> 50 µM	12.5 to 25 µM	6.2 to 12.5 µM		4 ± 1.9%	7 ± 3.4%	8 ± 0.9%	8 ± 2.7%				4.75 min		0 ± 0 cm	0.13 ± 0.09 cm	0.26 ± 0.05 cm
VWNQPVRGFKVYEKKLFKKILKKL-NH2 [Pep13-BP16]	6.2 to 12.5 µM	1.6 to 3.1 µM	6.2 to 12.5 µM	0.8 to 1.6 µM	3.1 to 6.2 µM	0.8 to 1.6 µM	0.8 to 12.5 µM	2 ± 0.6%	3 ± 0.2%	4 ± 0.3%	4 ± 0.2%	0.23 ± 0.07 cm	0.52 ± 0.14 cm	0.93 ± 0.19 cm	5.70 min				
VWNQPVRGFKVYEKKLFKKILKYL-NH2 [Pep13-BP100]	6.2 to 12.5 µM	3.1 to 6.2 µM	6.2 to 12.5 µM	0.8 to 1.6 µM	6.2 to 12.5 µM	0.8 to 1.6 µM	0.8 to 12.5 µM	9 ± 1.0%	25 ± 2.4%	45 ± 9.0%	49 ± 9.2%	0.26 ± 0.08 cm	0.56 ± 0.13 cm	0.70 ± 0.15 cm	6.14 min				
